Laboratory results reported in patent publication US10596296B2, “Heparan sulphates” (Agency for Science, Technology and Research, priority 2014, dated 2020).

Experiments:
LTGF-β1 = LTGF-β1 (Homo sapiens, UniProt P01137); details: reference (56); cited from earlier work
TGF-β1 [1] = biological target: T1, TGF-β1 (Homo sapiens, UniProt P01137); assay: GAG-binding plate assay; details: wells coated with 5 μg/ml GAG; TGF-β1 100, 200 or 400 ng/ml
T1 construct: full length mature TGF-β1 is 112 amino acids in length
T1 sequence (P01137 279-390 limits assumed): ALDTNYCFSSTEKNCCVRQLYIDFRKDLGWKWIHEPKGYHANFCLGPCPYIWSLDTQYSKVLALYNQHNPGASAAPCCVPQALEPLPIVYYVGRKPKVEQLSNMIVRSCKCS
Procedure: GAGs are immobilized in each well and then challenged with TGF-β1 according to the manufacturer's instructions. Briefly, triplicate wells are first pre-coated with 5 μg/ml of heparin, HS^PM, HS16^+ve or HS16^−ve in standard assay buffer (SAB: 100 mM NaCl, 50 mM sodium acetate, 0.2% v/v Tween 20, pH 7.2), and then incubated overnight at room temperature. The plates are next washed carefully three times with SAB, blocked with 250 μl of blocking solution (0.4% w/v fish skin gelatine, Sigma-Aldrich, in SAB) and incubated for 1 h at 37° C. TGF-β1 was then dissolved in blocking solution at a concentration of 100, 200, or 400 ng/ml. The plates are washed three times with SAB and each dilution of protein (200 μl) is dispensed into triplicate wells and incubated for 2 h at 37° C., rinsed with SAB and 200 μl of 750 ng/ml monoclonal mouse anti-TGF-β1 antibody (MAB2401, R&D Systems) added in blocking solution. Plates are then incubated for 1 h at 37° C., washed with SAB, and 200 μl of 1 μg/ml polyclonal goat anti-mouse biotinylated antibody (ab6788, Abcam) added in blocking solution. Again, plates are incubated for 1 h at 37° C., washed with SAB, and 200 μl of 220 ng/ml ExtrAvidin AP (Sigma-Aldrich) is added in blocking solution, incubated for 30 min at 37° C., and then rinsed with SAB. Finally, 200 μl of development reagent (SigmaFAST p-Nitrophenyl phosphate, Sigma-Aldrich) is added, incubated at 37° C. for 40 min and read at 405 nm within 1 h.
To determine the ability of TGF-β1 to bind to heparin, we utilized positively-charged GAG-binding plates (Iduron) as a capture substrate. GAGs were immobilized in each well and then challenged with TGF-β1 according to the manufacturer's instructions. Briefly, triplicate wells were first pre-coated with 5 μg/ml of full length heparin, size-fractionated heparin (dp14, 16, 18, 20, 22 and 24) or selectively […] heparin prepared in standard assay buffer (SAB: 100 mM NaCl, 50 mM sodium acetate, 0.2% v/v Tween 20, pH 7.2), and then incubated overnight at room temperature. The plates were next washed carefully three times with SAB, blocked with 250 μl of blocking solution (0.4% w/v fish skin gelatine, Sigma-Aldrich, in SAB) and incubated for 1 h at 37° C. TGF-β1 was then dissolved in blocking solution at a concentration of 100, 200, or 400 ng/ml. The plates were washed three times with SAB and each dilution of protein (200 μl) was dispensed into triplicate wells and incubated for 2 h at 37° C., rinsed with SAB and 200 μl of 750 ng/ml monoclonal mouse anti-TGF-β1 antibody (MAB2401, R&D Systems) added in blocking solution. […] Finally, 200 μl of development reagent (SigmaFAST p-Nitrophenyl phosphate, Sigma-Aldrich) was added, incubated at 37° C. for 40 min and read at 405 nm within 1 h.

TGF-β1 [2] = biological target: T1, TGF-β1; assay: SPR analysis of TGF-β1 binding to biotinylated heparin on SA chip
Procedure: Biotinylated heparin was prepared based on the protocol reported by Hernaiz et al. (33). Briefly, 20 mg of heparin was filter-sterilized (0.22 μm) in 1 ml of water and incubated with 8.6 μmol of N-hydroxysuccinimide-biotin (NHS-biotin) (Pierce) in 20 μl of dimethyl sulfoxide (DMSO) for 2 h at 4° C. The biotinylated heparin was then extensively dialyzed (7000 MWCO) to remove unreacted biotin. Immobilization of the biotinylated heparin onto a streptavidin (SA) sensor chip (GE Healthcare) was carried out using the immobilization wizard on the Biacore T100 (GE Healthcare) with a targeted immobilization level of approximately 40 response units (RUs). HBS-EP running buffer (10 mM HEPES, 150 mM NaCl, 3.0 mM EDTA, 0.05% (v/v) Tween 20, pH 7.4) was used for the immobilization.
TGF-β1-heparin interactions were effected by preparing a series of TGF-β1 protein samples (50 to 800 nM final concentration) diluted in HBS-EP-0.1 running buffer (0.1% instead of 0.05% (v/v) Tween 20). […] The sample solutions were then injected over the heparin-coated chip at a flow rate of 30 μl/min for 120 s, with HBS-EP-0.1 being subsequently passed over the chip for a further 1200 s to monitor TGF-β1 dissociation. After dissociation, the sensor surface on the chip was regenerated by 2 washes of 2 M NaCl injected at 30 μl/min for 60 s. The response was measured as a function of time (sensogram) at 25° C. […]

Sequence of LTGF-β1 (P01137 279-390 limits assumed): as above
Sequence of LTGF-β1 (P01137 30-278 limits assumed): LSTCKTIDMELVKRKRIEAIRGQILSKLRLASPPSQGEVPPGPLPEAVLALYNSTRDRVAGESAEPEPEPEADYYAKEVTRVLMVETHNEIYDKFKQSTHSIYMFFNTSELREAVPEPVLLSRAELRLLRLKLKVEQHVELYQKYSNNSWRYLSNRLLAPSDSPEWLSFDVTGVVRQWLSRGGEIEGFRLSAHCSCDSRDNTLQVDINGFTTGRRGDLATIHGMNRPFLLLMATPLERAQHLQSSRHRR

- TGF-β1 binding to immobilized GAG (TGF-β1 [1]): bound in a dose-dependent manner
- TGF-β1 binding to heparin immobilized on Biacore SA-chip (TGF-β1 [2]): bound in a dose-dependent manner
- Kd (TGF-β1 [2]; TGF-β1 50 to 800 nM injected over heparin-coated SA chip): ~475 nM
Substance: heparin
- effect on activation of LTGF-β1 (LTGF-β1): inhibit the activation of LTGF-β1
